According to PMC5193077, “An Allosteric Potentiator of the Dopamine D1 Receptor Increases Locomotor Activity in Human D1 Knock-In Mice without Causing Stereotypy or Tachyphylaxis” (The Journal of Pharmacology and Experimental Therapeutics, 2017):
Where “and” joins values, the source holds several entries; their conditions need not be identical. Equal values may be shown once. Entries after “also recorded” stand apart in the source; their conditions may differ.

Assays:
human D5 receptor = target: T1, human D5 receptor (Homo sapiens, UniProt P21918); experiment: cAMP response in hD5 CHO cells; type: cell-based
T1 construct: host or cells: CHO
T1 sequence (P21918 whole entry): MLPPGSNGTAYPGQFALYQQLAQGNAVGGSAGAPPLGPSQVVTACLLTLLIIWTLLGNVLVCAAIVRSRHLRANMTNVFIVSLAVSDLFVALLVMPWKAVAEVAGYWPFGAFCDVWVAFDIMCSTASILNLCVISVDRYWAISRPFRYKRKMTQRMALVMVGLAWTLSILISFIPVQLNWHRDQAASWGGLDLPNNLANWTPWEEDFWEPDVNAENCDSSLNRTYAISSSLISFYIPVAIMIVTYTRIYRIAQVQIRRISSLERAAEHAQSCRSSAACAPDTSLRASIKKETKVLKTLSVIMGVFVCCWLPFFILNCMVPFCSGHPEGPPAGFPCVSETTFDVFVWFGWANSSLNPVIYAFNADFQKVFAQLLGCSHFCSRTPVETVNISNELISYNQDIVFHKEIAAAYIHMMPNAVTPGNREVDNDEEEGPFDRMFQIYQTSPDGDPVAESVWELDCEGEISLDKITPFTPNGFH
Method: A Chinese hamster ovary (CHO) cell line expressing the human D5 receptor was purchased from DiscoveRx (Fremont, CA) (product no. 92-1043). The hD5 assay was performed in the same way as the hD1 assay except that the EC20 concentration of dopamine was 2 nM.

5HT6 receptor = 5HT6 receptor (Homo sapiens, UniProt P50406); experiment: 5HT6 cAMP assay (DiscoveRx); type: cell-based; conditions: potentiator, agonist and antagonist mode, up to 10 µM
5HT6 receptor, sequence (P50406 whole entry): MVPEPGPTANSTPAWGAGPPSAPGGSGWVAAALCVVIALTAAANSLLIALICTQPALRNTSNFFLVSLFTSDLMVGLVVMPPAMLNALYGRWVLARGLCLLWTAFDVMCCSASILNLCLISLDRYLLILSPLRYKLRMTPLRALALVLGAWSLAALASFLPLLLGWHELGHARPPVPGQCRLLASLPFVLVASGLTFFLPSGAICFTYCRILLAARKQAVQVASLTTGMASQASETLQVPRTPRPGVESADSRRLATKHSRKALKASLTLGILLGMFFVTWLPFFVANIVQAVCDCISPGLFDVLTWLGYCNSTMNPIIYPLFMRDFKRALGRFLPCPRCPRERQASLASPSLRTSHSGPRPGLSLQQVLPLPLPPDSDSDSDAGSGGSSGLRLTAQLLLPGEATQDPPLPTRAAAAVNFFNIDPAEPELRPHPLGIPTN
Method: (§1) The D2, β1, β2, β3, and 5HT6 cAMP assays were performed at DiscoveRx using the protocols described on their website (www.discoverx.com).

human D1 receptor [1] = target: T2, human D1 receptor (Homo sapiens, UniProt P21728); experiment: cAMP potentiation, transiently expressed human D1 receptor in HEK293 cells; type: cell-based; conditions: Human D1, transient
T2 sequence (P21728 whole entry): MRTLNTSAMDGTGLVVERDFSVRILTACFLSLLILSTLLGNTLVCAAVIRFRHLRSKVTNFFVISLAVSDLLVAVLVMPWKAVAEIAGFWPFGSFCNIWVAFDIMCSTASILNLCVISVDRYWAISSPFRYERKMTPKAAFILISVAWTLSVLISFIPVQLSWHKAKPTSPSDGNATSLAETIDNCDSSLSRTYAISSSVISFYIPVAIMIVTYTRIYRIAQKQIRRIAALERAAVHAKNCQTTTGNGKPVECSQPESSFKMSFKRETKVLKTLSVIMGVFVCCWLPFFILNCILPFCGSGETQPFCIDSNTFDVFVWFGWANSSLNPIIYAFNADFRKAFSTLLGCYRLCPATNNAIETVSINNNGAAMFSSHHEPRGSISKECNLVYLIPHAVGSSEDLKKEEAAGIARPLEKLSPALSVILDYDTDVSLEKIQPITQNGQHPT

rat D1 receptor = target: T3, rat D1 receptor (Rattus norvegicus, UniProt P18901); experiment: cAMP response in rD1 HEK293 cells; type: cell-based
T3 construct: expressed in transfected cells
T3 sequence (P18901 whole entry): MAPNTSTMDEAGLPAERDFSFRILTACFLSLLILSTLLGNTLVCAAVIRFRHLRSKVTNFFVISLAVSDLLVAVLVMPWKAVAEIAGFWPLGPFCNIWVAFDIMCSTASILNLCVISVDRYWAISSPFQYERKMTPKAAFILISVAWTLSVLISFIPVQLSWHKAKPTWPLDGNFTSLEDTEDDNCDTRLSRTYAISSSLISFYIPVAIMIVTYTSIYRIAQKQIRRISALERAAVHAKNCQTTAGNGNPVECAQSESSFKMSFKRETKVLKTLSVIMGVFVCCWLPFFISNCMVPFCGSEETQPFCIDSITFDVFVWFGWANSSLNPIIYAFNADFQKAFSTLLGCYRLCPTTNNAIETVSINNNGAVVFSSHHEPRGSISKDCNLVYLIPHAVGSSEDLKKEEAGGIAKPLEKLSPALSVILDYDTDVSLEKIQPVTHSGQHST

human D1 receptor [2] = target: T2, human D1 receptor; experiment: 3H-SCH23390 binding to human D1 HEK293 cell membranes; conditions: 1-100 nM DETQ
D2 receptor = D2 receptor (Homo sapiens, UniProt P14416); experiment: D2 cAMP assay (DiscoveRx); type: cell-based; conditions: potentiator, agonist and antagonist mode, up to 10 µM
D2 receptor, sequence (P14416 whole entry): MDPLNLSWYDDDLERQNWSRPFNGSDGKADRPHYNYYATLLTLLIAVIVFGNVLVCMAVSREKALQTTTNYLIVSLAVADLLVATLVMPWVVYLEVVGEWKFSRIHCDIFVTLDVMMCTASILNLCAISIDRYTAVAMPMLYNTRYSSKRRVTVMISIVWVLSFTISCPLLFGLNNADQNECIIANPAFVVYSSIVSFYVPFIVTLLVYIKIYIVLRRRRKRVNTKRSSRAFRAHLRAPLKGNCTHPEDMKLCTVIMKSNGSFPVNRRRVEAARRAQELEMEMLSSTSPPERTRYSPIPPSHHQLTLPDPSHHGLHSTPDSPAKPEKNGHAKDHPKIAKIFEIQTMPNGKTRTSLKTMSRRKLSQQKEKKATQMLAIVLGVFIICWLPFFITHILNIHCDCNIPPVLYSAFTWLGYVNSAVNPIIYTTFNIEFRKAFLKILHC
Method: as §1

[3] = test system: 10 additional targets from the standard Lilly selectivity panel; experiment: Standard Lilly selectivity panel, additional targets
[4] = Free (unbound) brain concentrations of DETQ in hD1 mice; type: in vivo, mouse
Method: Immediately after the LMA measurements described in Fig. 8, the brains were removed, and brain homogenate concentrations were determined by liquid chromatography with tandem mass spectrometry. The unbound fraction in brain was determined by equilibrium dialysis in a mouse brain homogenate mixture after incubation of the compound for 4.5 hours ([Kalvass et al., 2007]).
The unbound brain concentrations were calculated from the following equation: […]

human D1 receptor [5] = target: T2, human D1 receptor; experiment: cAMP response in HEK293 cells stably expressing the human D1 receptor; type: cell-based; conditions: for EC50: hD1 HEK293
β3 receptor = β3 receptor (Homo sapiens, UniProt P13945); experiment: β3 cAMP assay (DiscoveRx); type: cell-based; conditions: potentiator, agonist and antagonist mode, up to 10 µM
β3 receptor, sequence (P13945 whole entry): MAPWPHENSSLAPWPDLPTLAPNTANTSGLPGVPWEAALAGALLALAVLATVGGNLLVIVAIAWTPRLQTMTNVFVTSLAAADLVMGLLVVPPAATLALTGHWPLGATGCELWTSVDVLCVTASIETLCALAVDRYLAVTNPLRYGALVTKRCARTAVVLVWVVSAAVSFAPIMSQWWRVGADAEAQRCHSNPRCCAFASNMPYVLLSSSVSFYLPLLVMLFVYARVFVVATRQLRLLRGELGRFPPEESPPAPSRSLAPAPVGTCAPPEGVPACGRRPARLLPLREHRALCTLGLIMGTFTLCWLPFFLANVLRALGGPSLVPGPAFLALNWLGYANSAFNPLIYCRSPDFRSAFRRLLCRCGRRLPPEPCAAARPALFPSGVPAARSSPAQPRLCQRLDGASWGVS
Method: as §1

β2 receptor = β2 receptor (Homo sapiens, UniProt P07550); experiment: β2 cAMP assay (DiscoveRx); type: cell-based; conditions: potentiator, agonist and antagonist mode, up to 10 µM
β2 receptor, sequence (P07550 whole entry): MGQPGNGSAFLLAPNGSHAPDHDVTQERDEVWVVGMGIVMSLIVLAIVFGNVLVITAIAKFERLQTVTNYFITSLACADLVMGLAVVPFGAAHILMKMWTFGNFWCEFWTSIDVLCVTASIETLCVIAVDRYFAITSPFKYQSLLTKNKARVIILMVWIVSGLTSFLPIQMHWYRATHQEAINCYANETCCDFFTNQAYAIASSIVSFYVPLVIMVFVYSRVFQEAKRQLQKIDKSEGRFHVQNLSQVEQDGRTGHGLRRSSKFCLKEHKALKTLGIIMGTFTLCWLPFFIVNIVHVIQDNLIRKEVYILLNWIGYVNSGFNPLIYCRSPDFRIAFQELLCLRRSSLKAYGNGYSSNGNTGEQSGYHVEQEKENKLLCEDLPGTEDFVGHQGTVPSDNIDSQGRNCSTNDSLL
Method: as §1

human D1 receptor [6] = target: T2, human D1 receptor; experiment: D1 receptor internalization (PathHunter, DiscoveRx)
hD1 mice [7] = experiment: Video-tracking of horizontal motion, rearing and grooming in hD1 mice; type: in vivo, mouse
Description: The apparatus for the video-tracking assessment experiment included 12 custom-built video-tracking observation chambers and the HomeCageScan (CleverSys, Reston, VA) software system. The chambers, measuring (in inches) 8 width × 10 length × 8 height, consisted of two end walls, a back wall, a top, and a floor constructed of ¼-in. translucent white acrylic, and one side (front) constructed of clear acrylic. LED strip lighting was placed below the chamber for illumination. A color video camera (640 × 480, 30 frames per second) was placed in front of each chamber to record behavior from a side view. The chambers were located in large sound-attenuating chambers to reduce ambient room noise and isolate lighting. The cameras were connected in groups of four to a quad multiplexer (model NVQC-42N; Nuvico, Englewood, NJ), with each multiplexer connected to its own computer, which then recorded each session to an MPEG file.
At the end of the experiment the files were batch-analyzed by a computer running the CleverSys CageScan video-tracking software. This software can recognize and quantify several different behaviors, including LMA, grooming, rearing, immobility, and feeding behaviors. The current experiment examined behavior in a novel open-field environment rather than home-cage activity, which limited behaviors of interest to LMA, grooming, and rearing.
For HomeCageScan behavioral phenotyping, male D1 knock-in mice (8–12 weeks, 20–25 g body weight) were placed into the observation chambers for a 60-minute habituation session. […] All behavioral activity was monitored and scored by the HomeCageScan system.

dog D1 receptor = dog D1 receptor (Canis lupus familiaris, UniProt A0A8I3RQT9); experiment: cAMP potentiation, transiently expressed dog D1 receptor in HEK293 cells; type: cell-based; conditions: Dog D1, transient
dog D1 receptor, sequence (A0A8I3RQT9 1-446): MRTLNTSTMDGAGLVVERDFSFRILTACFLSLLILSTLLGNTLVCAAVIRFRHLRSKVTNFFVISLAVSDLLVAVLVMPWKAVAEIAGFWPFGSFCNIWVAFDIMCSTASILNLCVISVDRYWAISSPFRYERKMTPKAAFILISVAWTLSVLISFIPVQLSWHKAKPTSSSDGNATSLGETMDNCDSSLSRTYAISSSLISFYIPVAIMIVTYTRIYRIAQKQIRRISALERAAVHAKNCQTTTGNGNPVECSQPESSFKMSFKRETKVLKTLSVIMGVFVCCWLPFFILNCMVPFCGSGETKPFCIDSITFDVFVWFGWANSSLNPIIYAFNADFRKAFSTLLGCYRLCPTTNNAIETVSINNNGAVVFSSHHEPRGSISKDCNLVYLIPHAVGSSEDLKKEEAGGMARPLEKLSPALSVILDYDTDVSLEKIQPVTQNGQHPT
Method: The human, rhesus monkey, dog, or mouse D1 receptor was cloned into the Jump-In vector system (Life Technologies, Austin, TX) and transiently transfected into HEK293 cells using Fugene HD (Promega, Madison, WI). After 2 days of growth in DMEM medium containing 10% FBS, 10 mM HEPES, and 100 µg/ml ampicillin at 37°C in 5% CO2, the cells were harvested with TrypLE Express (GIBCO), resuspended in FBS containing 8% DMSO, and stored in 1-ml aliquots (10 × 10^6 cells/ml) at −70°C. The cAMP accumulation was measured as described for hD1 except that 6000 to 10,000 cells per well were used and the EC20 concentration of dopamine used was 0.7 nM (final).

hD1 mice [8] = test system: hD1 mice; parameters: method as in Bruns et al., submitted for publication; conditions: reserpine pretreatment; ref Bruns et al., submitted for publication; cited from earlier work
β1 receptor = β1 receptor (Homo sapiens, UniProt P08588); experiment: β1 cAMP assay (DiscoveRx); type: cell-based; conditions: potentiator, agonist and antagonist mode, up to 10 µM
β1 receptor, sequence (P08588 whole entry): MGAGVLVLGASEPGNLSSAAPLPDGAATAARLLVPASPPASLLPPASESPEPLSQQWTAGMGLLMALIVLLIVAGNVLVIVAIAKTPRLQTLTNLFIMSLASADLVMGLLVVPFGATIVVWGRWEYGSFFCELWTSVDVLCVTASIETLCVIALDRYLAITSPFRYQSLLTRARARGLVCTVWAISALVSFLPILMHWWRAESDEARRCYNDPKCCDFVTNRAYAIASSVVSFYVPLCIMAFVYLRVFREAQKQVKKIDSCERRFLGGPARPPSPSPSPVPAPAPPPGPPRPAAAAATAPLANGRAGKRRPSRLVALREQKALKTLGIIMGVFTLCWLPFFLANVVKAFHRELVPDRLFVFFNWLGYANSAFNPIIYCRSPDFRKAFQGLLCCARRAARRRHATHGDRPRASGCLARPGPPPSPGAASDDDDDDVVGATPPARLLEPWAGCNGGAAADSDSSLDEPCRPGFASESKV
Method: as §1

[9] = with EC20 dopamine, 0% = EC20 dopamine response, 100% = maximum dopamine response

## C[C@H]1c2cccc(C(C)(C)O)c2C[C@H](CO)N1C(=O)Cc1c(Cl)cccc1Cl [DETQ, 2-(2,6-dichlorophenyl)-1-((1S,3R)-3-(hydroxymethyl)-5-(2-hydroxypropan-2-yl)-1-methyl-3,4-dihydroisoquinolin-2(1H)-yl)ethan-1-one]
Human D5 receptor
  Selectivity for the D1 receptor over D5: > 1000 fold
Human D5 receptor; potentiator mode, up to 25 µM
  Activity at human D5 receptor: inactive
5HT6 receptor
  Activity at 5HT6 receptor: inactive
Human D1 receptor [1]
  Top (%): 75.6%
Human D1 receptor [1]; 0.7 nM dopamine
  EC50: 11.4 nM
Rat D1 receptor
  Loss of functional affinity/potency at rat D1 versus human D1: ~30 fold and 28 fold
Rat D1 receptor; HEK293, rat D1, read-out: Maximum response relative to that of dopamine
  Emax: 39.9%
Rat D1 receptor; rat D1, 5 nM dopamine (EC20), n = 4, read-out: EC50, cAMP potentiation
  EC50: 162 ± 18 nM
Human D1 receptor [2]
  Effect on affinity of dopamine to inhibit SCH23390 binding: increased the affinity of dopamine
D2 receptor
  Activity at D2 receptor: inactive
[3]
  Activity at 10 additional targets of the Lilly selectivity panel: inactive
[4]; 240 mg/kg oral, immediately after LMA testing
  Free brain levels after oral dosing: ~600 nM
[4]; hD1 knock-in, mouse, brain (unbound), 240 mg/kg oral twice daily, at 6 hours, n = 3, read-out: Unbound brain levels
  concentration at 6 h: 19.8 ± 1.5 nM
[4]; hD1 knock-in, mouse, brain (unbound), 240 mg/kg oral twice daily, at 12 hours, n = 3, read-out: Unbound brain levels
  concentration at 12 h: 30.8 ± 9.4 nM
Human D1 receptor [5]
  Relative potency (potentiator mode RA divided by agonist mode RA): 43 fold and 42.8 fold
Human D1 receptor [5]; 20.8 × 1.22
  Maximum overall sensitization to dopamine (α times β): 25.4 fold
Human D1 receptor [5]; HEK293, human D1, comparison with rat D1, read-out: Maximum response relative to that of dopamine
  Emax: 98.6%
Human D1 receptor [5]; agonist vs potentiator mode
  Rightward shift of EC50 in the absence of dopamine: 6 fold
Human D1 receptor [5]; allosteric Schild plot
  α-factor (maximum leftward shift of the cAMP response to dopamine): 21 fold and 20.8 fold and 20.8 ± 1.9 fold
Human D1 receptor [5]; dopamine curve-shift, cAMP, read-out: KB (allosteric Schild plot)
  Kb: 26 nM
Human D1 receptor [5]; in the presence of an EC20 concentration of dopamine (12 nM), read-out: EC50, cAMP, potentiator mode
  EC50: 5.8 nM and 5.83 nM
Human D1 receptor [5]; with 12 nM dopamine, % of window between EC20 dopamine and maximum dopamine response
  Top, cAMP, potentiator mode: 95.2%
Human D1 receptor [5]; without dopamine
  RA, cAMP agonist mode: 0.38
Human D1 receptor [5]; without dopamine, % of maximum response to dopamine
  Top, cAMP, agonist mode: 11.6%
Human D1 receptor [5]; without dopamine, read-out: EC50, cAMP, agonist mode
  EC50: 30.4 nM
β3 receptor
  Activity at β3 receptor: inactive
β2 receptor
  Activity at β2 receptor: inactive
Human D1 receptor [6]; RA for cAMP divided by RA for internalization
  Pathway Preference cAMP/Internalization: 13.1
Human D1 receptor [6]; pathway preference of DETQ divided by that of A-77636
  Relative Preference DETQ/A-77636: 2.0 ± 1.4 and 1.97
Human D1 receptor [6]; top divided by EC50, with 407 nM dopamine
  RA, Internalization: 1.25
Human D1 receptor [6]; [9]
  Bottom, D1 receptor internalization: 5.0%
  Top, D1 receptor internalization: 55.8%
hD1 mice [7]
  Grooming (index of stereotyped behavior): only modest changes that did not reach statistical significance
  Horizontal locomotion and rearing: this increase was maintained up to the highest dose tested
Dog D1 receptor
  Top (%): 85.2%
Dog D1 receptor; 0.7 nM dopamine
  EC50: 8.6 nM
hD1 mice [8]
  Response in hD1 mice depleted of dopamine by reserpine: did not reverse hypokinesia; also recorded: absent
β1 receptor
  Activity at β1 receptor: inactive
